# According to US12390441B2, “Immunomodulating o-het/aryl azalides” (Zoetis Services LLC, priority 2020, dated 2025):
# Values joined by “and” are separate entries in the source; they are usually repeats but may differ in a detail not shown here. Equal entries are not always repeated.
# Tests used:
# Experiment in all cases: Whole blood assay, LPS stimulation, MSD cytokine detection
# IL-1β = type: cell-based, bovine; details: fresh whole bovine blood, LPS stimulation; drug concentration giving overstimulation (OS) of IL-1β
# Description: (§1) Compounds of the invention were evaluated against a positive control for their ability to inhibit LPS-induced IL-1p and TNF-α as an overall evaluation of relative potency and modulation of target pathways.
# (§2) In the bovine whole blood in vitro screening assay the inhibition of TNFα as induced by stimulation by lipopolysaccharide (LPS) and as measured by half the maximal inhibitory concentration (IC50) is recognized as the primary biomarker of immunomodulation potency upon pretreatment with the compounds of the invention. IL-1β is a mediator of the inflammation response and is involved in a number of cellular activities including proliferation, differentiation and apoptosis. IL-1β is also released upon cellular stress or cytotoxicity or upon TLR stimulation. In the bovine whole blood assay the stimulation of IL-1β release upon increasing concentration of test compound is seen as a potential cellular toxicity signal as induced by the test compound. In order to estimate a therapeutic index from the in vitro assay a differential between the TNFα IC50 (immunomodulation potency) versus the perceived cellular toxicity concentration (IL-1β release or overstimulation) was utilized. […] As the in vitro assay index approaches 1 it is proposed that the balance between immunomodulation and cytotoxicity would be too narrow in order to achieve an efficacious dose in vivo.
# IL-6 = type: cell-based; details: fresh whole bovine blood
# TNF-α = type: cell-based; details: fresh whole bovine blood
# Description: as §1, §2
SMILES,IL-1ß OS of LPS (IL-1β),IC50 (IL-6),IC50 (TNF-α) [µM]
CC[C@H]1OC(=O)[C@H](C)[C@@H](O[C@H]2C[C@@](C)(OC)[C@@H](O)[C@H](C)O2)[C@H](C)[C@@H](O[C@@H]2O[C@H](C)C[C@H](N(C)C)[C@H]2Oc2ccc(F)cc2)[C@](C)(O)C[C@@H](C)CN(C)[C@H](C)[C@@H](O)[C@]1(C)O [Example A-23],6 µM,50 µM,5
CC[C@H]1OC(=O)[C@H](C)[C@@H](O[C@H]2C[C@@](C)(OC)[C@@H](O)[C@H](C)O2)[C@H](C)[C@@H](O[C@@H]2O[C@H](C)C[C@H](N(C)C)[C@H]2Oc2ccc3ccncc3c2)[C@](C)(O)C[C@@H](C)CN(C)[C@H](C)[C@@H](O)[C@]1(C)O [Example A-24],40 µM,24 µM,19
CC[C@H]1OC(=O)[C@H](C)[C@@H](O[C@H]2C[C@@](C)(OC)[C@@H](O)[C@H](C)O2)[C@H](C)[C@@H](O[C@@H]2O[C@H](C)C[C@H](N(C)C)[C@H]2Oc2ccc(F)c(C#N)c2)[C@](C)(O)C[C@@H](C)CN(C)[C@H](C)[C@@H](O)[C@]1(C)O [Example A-25],16 µM,12 µM,3
CC[C@H]1OC(=O)[C@H](C)[C@@H](O[C@H]2C[C@@](C)(OC)[C@@H](O)[C@H](C)O2)[C@H](C)[C@@H](O[C@@H]2O[C@H](C)C[C@H](N(C)C)[C@H]2Oc2cnc3ccccc3c2)[C@](C)(O)C[C@@H](C)CN(C)[C@H](C)[C@@H](O)[C@]1(C)O [Example A-28],16 µM,11 µM,3
CC[C@H]1OC(=O)[C@H](C)[C@@H](O[C@H]2C[C@@](C)(OC)[C@@H](O)[C@H](C)O2)[C@H](C)[C@@H](O[C@@H]2O[C@H](C)C[C@H](NC)[C@H]2Oc2cnc(Cl)cc2C)[C@](C)(O)C[C@@H](C)CN(C)[C@H](C)[C@@H](O)[C@]1(C)O [Example A-29],10 µM,9 µM,7
CC[C@H]1OC(=O)[C@H](C)[C@@H](O[C@H]2C[C@@](C)(OC)[C@@H](O)[C@H](C)O2)[C@H](C)[C@@H](O[C@@H]2O[C@H](C)C[C@H](NC)[C@H]2Oc2ccc(OC)c(OC(C)C)c2)[C@](C)(O)C[C@@H](C)CN(C)[C@H](C)[C@@H](O)[C@]1(C)O [Example A-34],>250 µM,21 µM,4
CC[C@H]1OC(=O)[C@H](C)[C@@H](O[C@H]2C[C@@](C)(OC)[C@@H](O)[C@H](C)O2)[C@H](C)[C@@H](O[C@@H]2O[C@H](C)C[C@H](N(C)C)[C@H]2Oc2cc(OC)ccc2OC)[C@](C)(O)C[C@@H](C)CN(C)[C@H](C)[C@@H](O)[C@]1(C)O [Example A-35],40 µM,11 µM,4
CC[C@H]1OC(=O)[C@H](C)[C@@H](O[C@H]2C[C@@](C)(OC)[C@@H](O)[C@H](C)O2)[C@H](C)[C@@H](O[C@@H]2O[C@H](C)C[C@H](NC)[C@H]2Oc2ccccc2C#N)[C@](C)(O)C[C@@H](C)CN(C)[C@H](C)[C@@H](O)[C@]1(C)O [Example A-36],100 µM,13 µM,13
CC[C@H]1OC(=O)[C@H](C)[C@@H](O[C@H]2C[C@@](C)(OC)[C@@H](O)[C@H](C)O2)[C@H](C)[C@@H](O[C@@H]2O[C@H](C)C[C@H](NC)[C@H]2Oc2cccc(S(=O)(=O)CC)c2)[C@](C)(O)C[C@@H](C)CN(C)[C@H](C)[C@@H](O)[C@]1(C)O [Example A-41],16 µM,19 µM,5
CC[C@H]1OC(=O)[C@H](C)[C@@H](O[C@H]2C[C@@](C)(OC)[C@@H](O)[C@H](C)O2)[C@H](C)[C@@H](O[C@@H]2O[C@H](C)C[C@H](N(C)C)[C@H]2Oc2cnc(Cl)cc2C)[C@](C)(O)C[C@@H](C)CN(C)[C@H](C)[C@@H](O)[C@]1(C)O [Example A-45],40 µM,12 µM,4
CC[C@H]1OC(=O)[C@H](C)[C@@H](O)[C@H](C)[C@@H](O[C@@H]2O[C@H](C)C[C@H](N(C)C(=O)N(C)c3ccccc3)[C@H]2Oc2ccc(F)c(C(F)(F)F)c2)[C@](C)(O)C[C@@H](C)CN(C)[C@H](C)[C@@H](O)[C@]1(C)O [Example C-10],40 µM,,22
CC[C@H]1OC(=O)[C@H](C)[C@@H](O)[C@H](C)[C@@H](O[C@@H]2O[C@H](C)C[C@H](N(C)C(=O)N(C)c3ncccn3)[C@H]2Oc2ccccc2)[C@](C)(O)C[C@@H](C)CN(C)[C@H](C)[C@@H](O)[C@]1(C)O [Example C-17],44 µM,63 µM,38
CC[C@H]1OC(=O)[C@H](C)[C@@H](O)[C@H](C)[C@@H](O[C@@H]2O[C@H](C)C[C@H](N(C)C(=O)N(C)C3CCC3)[C@H]2Oc2ccccc2)[C@](C)(O)C[C@@H](C)CN[C@H](C)[C@@H](O)[C@]1(C)O [Example C-21],8 µM,18 µM,28
CC[C@H]1OC(=O)[C@H](C)[C@@H](O)[C@H](C)[C@@H](O[C@@H]2O[C@H](C)C[C@H](N(C)C(=O)N(C)c3ncccn3)[C@H]2Oc2ccccc2)[C@](C)(O)C[C@@H](C)CN(C)[C@H](C)[C@@H](O)[C@]1(C)O [Example C-22],100 µM,151 µM,94
CCCNC[C@]1(O)[C@H](C)O[C@@H](O[C@H]2[C@H](C)[C@@H](O[C@@H]3O[C@H](C)C[C@H](NC)[C@H]3Oc3ccc(OC)c(F)c3)[C@](C)(O)C[C@@H](C)CN[C@H](C)[C@@H](O)[C@](C)(O)[C@@H](CC)OC(=O)[C@@H]2C)C[C@@]1(C)OC [Example E-10],40 µM,,30
CCCNC[C@]1(O)[C@H](C)O[C@@H](O[C@H]2[C@H](C)[C@@H](O[C@@H]3O[C@H](C)C[C@H](NC)[C@H]3Oc3cc(OC)c(OC)c(OC)c3)[C@](C)(O)C[C@@H](C)CN[C@H](C)[C@@H](O)[C@](C)(O)[C@@H](CC)OC(=O)[C@@H]2C)C[C@@]1(C)OC [Example E-11],250 µM,,70
CCCNC[C@]1(O)[C@H](C)O[C@@H](O[C@H]2[C@H](C)[C@@H](O[C@@H]3O[C@H](C)C[C@H](NC)[C@H]3Oc3ccc(OCC)cc3)[C@](C)(O)C[C@@H](C)CN[C@H](C)[C@@H](O)[C@](C)(O)[C@@H](CC)OC(=O)[C@@H]2C)C[C@@]1(C)OC [Example E-12],40 µM,,40
CCCNC[C@]1(O)[C@H](C)O[C@@H](O[C@H]2[C@H](C)[C@@H](O[C@@H]3O[C@H](C)C[C@H](N(C)C)[C@H]3Oc3cnc(OC)nc3)[C@](C)(O)C[C@@H](C)CN[C@H](C)[C@@H](O)[C@](C)(O)[C@@H](CC)OC(=O)[C@@H]2C)C[C@@]1(C)OC [Example E-27],100 µM,,65
CCCNC[C@]1(O)[C@H](C)O[C@@H](O[C@H]2[C@H](C)[C@@H](O[C@@H]3O[C@H](C)C[C@H](N(C)C)[C@H]3Oc3ccc(OC)cc3)[C@](C)(O)C[C@@H](C)CN[C@H](C)[C@@H](O)[C@](C)(O)[C@@H](CC)OC(=O)[C@@H]2C)C[C@@]1(C)OC [Example E-43],40 µM,,16
CCCNC[C@]1(O)[C@H](C)O[C@@H](O[C@H]2[C@H](C)[C@@H](O[C@@H]3O[C@H](C)C[C@H](N(C)C)[C@H]3Oc3ccc(F)cc3)[C@](C)(O)C[C@@H](C)CN[C@H](C)[C@@H](O)[C@](C)(O)[C@@H](CC)OC(=O)[C@@H]2C)C[C@@]1(C)OC [Example E-48],40 µM,,13
CC[C@H]1OC(=O)[C@H](C)[C@@H](O[C@H]2C[C@@](C)(OC)[C@](O)(CNCC3CC3)[C@H](C)O2)[C@H](C)[C@@H](O[C@@H]2O[C@H](C)C[C@H](N(C)C)[C@H]2Oc2ccccc2)[C@](C)(O)C[C@@H](C)CN[C@H](C)[C@@H](O)[C@]1(C)O [Example E-87],16 µM and 26 µM,18 µM and 19 µM,
CCCNC[C@]1(O)[C@H](C)O[C@@H](O[C@H]2[C@H](C)[C@@H](O[C@@H]3O[C@H](C)C[C@H](NC)[C@H]3Oc3cccc(OC)c3)[C@](C)(O)C[C@@H](C)CN[C@H](C)[C@@H](O)[C@](C)(O)[C@@H](CC)OC(=O)[C@@H]2C)C[C@@]1(C)OC [Example E-94],40 µM,,30
CC[C@H]1OC(=O)[C@H](C)[C@@H](O[C@H]2C[C@@](C)(OC)[C@](O)(CNC3CCC3)[C@H](C)O2)[C@H](C)[C@@H](O[C@@H]2O[C@H](C)C[C@H](NC)[C@H]2Oc2ccccc2)[C@](C)(O)C[C@@H](C)CN[C@H](C)[C@@H](O)[C@]1(C)O [Example E-126],40 µM,,14
CC[C@H]1OC(=O)[C@H](C)[C@@H](O[C@H]2C[C@@](C)(OC)[C@](O)(CNCCN(C)C)[C@H](C)O2)[C@H](C)[C@@H](O[C@@H]2O[C@H](C)C[C@H](NC)[C@H]2Oc2ccccc2)[C@](C)(O)C[C@@H](C)CN[C@H](C)[C@@H](O)[C@]1(C)O [Example E-129],250 µM,,75
CC[C@H]1OC(=O)[C@H](C)[C@@H](O[C@H]2C[C@@](C)(OC)[C@](O)(CNn3cccn3)[C@H](C)O2)[C@H](C)[C@@H](O[C@@H]2O[C@H](C)C[C@H](NC)[C@H]2Oc2ccccc2)[C@](C)(O)C[C@@H](C)CN[C@H](C)[C@@H](O)[C@]1(C)O [Example E-139],6 µM,,5
